Among the test systems are HOP-92 NSCLC; SNB-75 CNS; MCF7 breast; SF-295 CNS; OVCAR-4 ovarian; PC-3 prostate; BT-549 breast; 786-0 renal; MALME-3M melanoma; EKVX NSCLC.
Common to all, as to assay: inhibition of tumour cell growth, NCI panel, 48 h

This note sets out measurements from PubChem BioAssay (NCI).

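Compound exposure: 48 hours, 5 concentrations, 96-well plates. Here, GI50 denotes the concentration required for 50% inhibition of growth. Definition used: TGI = concentration required for complete inhibition of growth.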

For `COc1ccc(C(O)c2cc3c(N)c(C(=O)Nc4cccc(Cl)c4)sc3nc2C)cc1` (stereo not given), the GI50 in the assay on HOP-92 NSCLC is 3.66 µM; in the assay on SNB-75 CNS, 0.22 µM; in the assay on MCF7 breast, 1.11 µM; in the assay with SF-295 CNS, 1.12 µM; in the assay on OVCAR-4 ovarian, 2.59 µM; in the assay on PC-3 prostate it was 1.56 µM. Moreover, the GI50 in the assay with BT-549 breast is 2.09 µM; with 786-0 renal, 1.67 µM; in the assay on MALME-3M melanoma, 2.48 µM; in the assay on EKVX NSCLC, 1.88 µM. The TGI in the assay with HOP-92 NSCLC is over 39.9 µM; with SNB-75 CNS it was 16.6 µM; in the assay on MCF7 breast, over 67.2 µM; in the assay with SF-295 CNS, over 22.7 µM; in the assay on OVCAR-4 ovarian it was over 51.7 µM; with PC-3 prostate, over 40.4 µM. The TGI in the assay with BT-549 breast is over 38.5 µM; in the assay on 786-0 renal it was over 39.6 µM; in the assay on MALME-3M melanoma, over 73.4 µM; with EKVX NSCLC it was over 86.9 µM.

For `Cc1cc(O)c(C2=NN(c3ccc(S(N)(=O)=O)cc3)C(c3ccc(Cl)cc3)C2)c(C)c1Cl` (stereo not given), the GI50 in the assay with HOP-92 NSCLC is 3.74 µM; in the assay with SNB-75 CNS it was 10.9 µM; with MCF7 breast, 2.01 µM; in the assay with SF-295 CNS, 16 µM; with OVCAR-4 ovarian it was 7.69 µM; in the assay with PC-3 prostate, 4.44 µM. The GI50 in the assay on BT-549 breast was 13.1 µM; in the assay on 786-0 renal, 4.97 µM; with MALME-3M melanoma, 14.8 µM; with EKVX NSCLC, 1.88 µM. The TGI in the assay with HOP-92 NSCLC was 17.6 µM; in the assay with SNB-75 CNS, 23.7 µM; in the assay on MCF7 breast, 10.5 µM; with SF-295 CNS, 31.6 µM; in the assay on OVCAR-4 ovarian, 21.2 µM; in the assay on PC-3 prostate it was 16.8 µM. In addition, the TGI with BT-549 breast amounted to 27.7 µM; in the assay on 786-0 renal, 17.4 µM; in the assay on MALME-3M melanoma it was 35.2 µM; in the assay on EKVX NSCLC, 13.6 µM.
